{
  "source": "patent EP3466419B1",
  "about": "“USE OF TRIMETHOXYBENZYL ACETYLSINAPATE, ADVANTAGEOUSLY IN COMBINATION WITH AT LEAST ONE SUNSCREEN, FOR PROTECTING THE SKIN” (Thorel, Jean-Noël, priority 2017, dated 2019)",
  "system": "Nrf2",
  "assay": "Induction of the Nrf2 pathway, luciferase reporter assay in the « ARE Reporter-HepG2 » cell model",
  "type": "cell-based",
  "conditions": "18 hours of contact, relative to solvent control cells",
  "procedure": "Le but de l'étude est d'évaluer l'induction de la voie Nrf2 dans le modèle cellulaire « ARE Reporter-HepG2 » (HepG2; BPS BIOSCIENCE) [Lee et al., (2004), Dinkova-Kostova et al., (2002)] par l'actif visé dans l'invention.\nEn parallèle du test de cytotoxicité, des cellules HepG2 ont été également ensemencées dans des puits de plaques à 96 puits (plaques opaques avec fond transparent) à raison de 40 000 cellules/puits (volume de 100 µL), en milieu M1.\nSeuls les 60 puits centraux des plaques ont été utilisés, les puits restants n'ont reçu que du PBS.\nAprès adhésion des cellules, le milieu de culture M1 a été enlevé. Les cellules ont été traitées (volume final: 50 µL) avec le produit à l'essai, dilué dans le milieu de culture M1 (n=3/concentration à tester, 1 concentration/produit), pendant 18 heures. […]\nLes puits « sans cellules » ont servi à la détection de la luminescence liée au bruit de fond du milieu. Les puits « cellules témoins » ont servi à la détection de la luminescence intrinsèque du système d'essais (sans activation). […]\nA la fin de la période d'incubation (18 heures à 37°C, 5 % de CO2), les cellules ont été lysées par ajout de 100 µL du réactif « One-step luciferase assay system ». La luminescence émise par la luciférase néo-synthétisée a été évaluée avec un luminomètre Optima. […]",
  "data": [
    {"smiles": "COc1cc(COC(=O)/C=C/c2cc(OC)c(OC(C)=O)c(OC)c2)cc(OC)c1OC", "note": "[trimethoxybenzyl acetylsinapate, 3-[4-(acetyloxy)-3,5-dimethoxyphenyl] -(3,4,5-trimethoxyphenyl)methyl ester-(2E)-Propenoic acid]", "values": [
      {"measurement": "activity at 0.00125 %", "setting": "dose 0,00125 %, read-out: taux d'activation de Nrf2", "result": 164, "unit": "%"}
    ]},
    {"smiles": "C[S+]([O-])CCCCN=C=S", "note": "(centres unmarked) [sulforaphane]", "values": [
      {"measurement": "activity at 3 µM", "setting": "Homo sapiens, HepG2, 3 µM, read-out: luminescence émise par les cellules HepG2 traitées, en comparaison au témoin solvant (activation de Nrf2)", "result": 438, "unit": "%"}
    ]}
  ]
}
